Laboratory results taken from patent US20220260566A1, “IMMUNITY MECHANISM AND THERAPEUTIC DRUG FOR GASTROINTESTINAL DISEASES” (GUANGZHOU WOMEN AND CHILDREN'S MEDICAL CENTER, priority 2018, published 2022).
“Also recorded” adds a separate entry of the source.

Assays:
[1] = test system: CD68+ macrophages and TNF-α in the colonic mucosa; experiment: Immunofluorescence of colonic mucosa before and after treatment: CD68+ macrophages, TNF-α, PDE4B; format: in vivo, human; conditions: for macrophage invasion in colonic mucosa: children with colitis or IBD, after vs before methylprednisolone or anti-TNF-α, FIG. 6C; for PDE4B: summary of immunological results after treatment
[2] = test system: TNF-α in monocytes and macrophages; experiment: TNF-α expression in monocytes and macrophages in vitro; format: cell-based; conditions: in vitro and in vivo
[3] = test system: platelet aggregation (CD41 clusters) in the colonic mucosa; experiment: Immunofluorescence of colonic mucosa before and after treatment: platelet aggregation (CD41 clusters); format: in vivo, human; conditions: children, after vs before dipyridamole treatment
Method: (§1) Use formalin-fixed and paraffin-embedded paraffin blocks to prepare 3 um tissue sections. After deparaffinization, blocking antibodies (PBS containing 5% normal donkey or goat serum and 0.3% Triton X-100) are incubated for 1 hour at room temperature, and washed with PBS Then incubate the primary antibody (CD39, CD41, pT71-ATF2 or pS133-CREB) overnight in a 4 C dark humidified box. Then, after washing with PBS, incubate the secondary antibodies (goat anti-mouse IgG1 combined with AF488 and goat anti-rabbit IgG combined with Cy3) for 1 hour at room temperature, and then incubate the anti-quencher containing DAPI. Then, use the Lycra automatic inverted fluorescence microscope to observe and take pictures (20×0.75), and use the Lycra X image analysis software to process the brightness, luminosity, contrast and color balance of the image to restore the image as much as possible. For each observation condition, 4-5 areas in each mucosal section were randomly selected for observation, and the CD41 aggregation (fluorescence diameter greater than 7 μm) was measured and counted using the card X image analysis software.

[4] = test system: HEK 293T cells stably transfected with the cAMP reporter gene GloSensor-22F cAMP plasmid; experiment: cAMP reporter assay (GloSensor-22F cAMP plasmid); format: cell-based; conditions: HEK 293T reporter cells; 3 independent experiments; forskolin as positive control
Description: FIG. 4: Highly inflammatory macrophage and dendritic cell (DC) infiltration in colitis and IBD patients compared to control subjects. […] The red and navy blue dots represent individual genes that pass the P value (≤0.05) and log 2 (Fold Change) (red, ≥1; navy blue, ≤−1) threshold. […] Forskolin, which increases the concentration of cAMP by activating adenylate cyclase, was used as a positive control. […] Colonic mucosa sections were stained with anti-CD68 to mark macrophages, and stained with NLRP3 and ASC for inflammasome. […] The P value was calculated using the Mann-Whitney U test, *, P<0.05****, P<0.0001. (D) Heat map showing the relative expression of colitis/IBD risk genes in myeloid cells.

[5] = test system: subjects with colitis confirmed by endoscopy and subjects with undefined IBD (IBDU); experiment: Clinical trial of dipyridamole in 9 children with endoscopy-confirmed colitis or undefined IBD (Table 6); format: in vivo, human
Description: The inventors also conducted clinical trial studies in subjects with colitis confirmed by endoscopy and subjects with undefined IBD (IBDU) (Table 6).
In Table 6, PLT stands for platelet count, HGB stands for hemoglobin, and ALB stands for albumin.

[6] = test system: CD39 in colonic intraepithelial T cells; experiment: CD39 expression of immune cells in DSS colitis model (flow cytometry); format: in vivo, mice
Method: From the second day of treatment, DSS was added to drinking water (2.5%) for 7 days. The control mice were given regular food and water. In order to analyze colon immune cells, the present invention harvests the colon and removes excess fat. After washing with ice-cold PBS, the colon was cut into pieces approximately 0.3-0.5 cm in length. After gentle rotation in the dissociation solution (HBSS without Ca/Mg, with 5 mM EDTA and 2% FBS) at 37° C. for 40 minutes, the intraepithelial lymphocytes (IEL) were pelleted, washed and resuspended in staining buffer (PBS 2% FBS). The remaining undigested colon tissue samples were gently rotated in the digestion solution (RPMI1640 containing 2% FBS, 2 mg/mL collagenase IV, 0.4 U/mL dispase and 1 μg/mL DNase) at 37° C. for 45 minutes. Pellet lamina propria lymphocytes (LPL), wash and resuspend in staining buffer. T cell plates (CD45-APC-Cy7, CD3-BV711, […]-Cy7, CD8-BV785, γδT-BV421 and CD4-APC) or myeloid plates (MHC II-BV550, CD11b-BV510 and CD39-PE-Cy7) were stained on ice for 30 minutes, and then analyzed on a FACSAria SORP flow cytometer (BD Science).

[7] = test system: CD39 expression in CD8+ T cells; experiment: CD39 expression during CD8+ T cell activation; format: cell-based; conditions: dose-dependent manner
[8] = test system: CD39; experiment: Immunofluorescence of colonic mucosa before and after treatment: CD39 expression; format: in vivo, human
Method: as §1

[9] = test system: children with colitis; experiment: Clinical trial of dipyridamole in children with colitis (Table 5, 23 patients); format: in vivo, human
Description: In the following, it is investigated whether the cAMP activation pathway regulates CD39 expression in T cells. […] The clinical trial was approved by the Ethical Review Committee of Guangzhou Women and Children's Medical Center and registered in the China Clinical Trial Registration Center (ChiCTR1800019803). All patients or family members signed an informed consent form.

[10] = test system: DSS-induced acute colitis; experiment: DSS-induced acute colitis model; format: in vivo, C57BL/6J mice
Method: Male C57BL/6J mice (20-22 g), six to eight weeks old, were purchased from Guangzhou University of Traditional Chinese Medicine. The mice were given regular food and water before the experiment. Weight-matched mice were used in all studies Animal research was approved by the Animal Care and Utilization Committee of Guangzhou Medical University (permit number: 2019-471) and was conducted in accordance with institutional guidelines.
The control mice were given regular food and water. The mice were monitored daily and if the weight loss exceeded 20%, they were euthanized.
For hematoxylin and eosin (H&E) staining, the colon was fixed in 4% paraformaldehyde (PFA) for 24 hours and embedded in paraffin. Prepare sections (3 μm) and deparaffinize before staining
To detect platelet aggregation in colon slices, the tissue was fixed in 4% PFA for 24 hours, cryoprotected in 30% sucrose for 48 hours, and then embedded in an Optimal Cutting Temperature (O.C.T.) compound. The frozen sections (5 μm) were washed, blocked with 10% goat serum, and incubated with anti-mouse CD41-FITC (133903, BioLegend, CA, USA) at 4° C. overnight.
After washing with PBS to remove unbound antibodies, the sections were fixed with […] anti-fading fixation medium (H-1200, Vector Laboratories, CA, USA) with DAPI for nuclear staining The immunofluorescence staining and image processing were performed as described above. Platelet aggregates are defined as CD41+ clusters (diameter >7 μm). Leica X image analysis software (Leica, Hamburg, Germany) and ImageJ software (National Institutes of Health, Maryland, USA) were used to count and analyze the number of CD41+ clusters per square millimeter. For each colon section, platelet aggregation in 5 randomly selected areas was recorded.
In order to analyze the expression of cytokines, the residual mesenteric fat in the colon was removed, weighed and dispersed in a single cell suspension with 1 mL of PBS. After centrifugation at 1000×g for 10 minutes at 4° C., the supernatant was taken to determine the concentration of TNF-α, IL-1β and IL-6 by ELISA.

[11] = test system: activated ATF2 and CREB; experiment: Immunofluorescence of colonic mucosa: activated ATF2 and CREB co-expressed with CD39; format: in vivo, human; conditions: children, after vs before dipyridamole treatment
Method: [Worded in the source for another target; this target is reported under the same test.] as §1, with “[…]-ATF2” for “pT71-ATF2”, “[…]-CREB)” for “pS133-CREB)”, “Lycra X” left out

[12] = test system: children with colitis or IBD; experiment: Children with colitis or IBD treated with methylprednisolone or anti-TNF-α antibody: colonoscopy and clinical status; format: in vivo, human
[13] = children, after vs before dipyridamole (n=7), FIG. 7H
[14] = dipyridamole 10 mg/kg twice a day vs DSS alone, 3% DSS
[15] = dipyridamole 10 mg/kg vs DSS alone

## C[C@H]1C[C@@H]2[C@H]([C@@H](O)C[C@@]3(C)[C@H]2CC[C@]3(O)C(=O)CO)[C@@]2(C)C=CC(=O)C=C12 [methylprednisolone]
[1]
  macrophage invasion in colonic mucosa: no effect
  PDE4B: no effect

## OCCN(CCO)c1nc(N2CCCCC2)c2nc(N(CCO)CCO)nc(N3CCCCC3)c2n1 [dipyridamole]
[2]
  expression of TNF-α in monocytes and macrophages: inhibit
[3]
  platelet aggregation in the colonic mucosa (CD41 clusters): significantly reduced
[4]
  cytoplasmic cAMP concentration: significantly increase
[1]; [13]
  TNF-α expression in colonic mucosa: significantly reduced
  macrophage infiltration in colonic mucosa: significantly reduced
[1]
  PDE4B: inhibited
[5]; after vs before dipyridamole (FIG. 7E, Table 6)
  clinical, endoscopic and histological severity scores: significantly improved
[5]; dipyridamole 3-5 mg/kg/day for 8 to 12 weeks
  adverse reactions: No obvious adverse reactions
[6]; dipyridamole 5 mg/kg or 50 mg/kg for 8 days, 2.5% DSS, dose-dependent manner
  CD39 expression in colonic epithelial CD4, CD8 and γδT cells: significantly increased
[6]; intraperitoneal injection of dipyridamole at 50 mg/kg
  expression of CD39 in CD4, CD8 and γδT cells: significantly increased
[7]
  CD39 expression during CD8+ T cell activation: significantly increased
[8]; children, after vs before dipyridamole treatment
  expression of CD39 in CD8 and CD4 T cells and macrophages of colonic mucosa: increase
[9]; after dipyridamole 3-5 mg/kg/day, treatment duration median 4 (2-12) weeks, 23 children, range 0-5, P < 0.0001 vs pre-treatment
  Severity score, Post-treatment, median: 1
[9]; after dipyridamole 3-5 mg/kg/day, 23 children, range 217-497, reference range 140-440, P = 0.0001 vs pre-treatment
  Platelet counts, Post-treatment, median: 296 10^9/L
[9]; after vs before dipyridamole (FIG. 3d)
  clinical severity score after treatment: significantly reduced
[9]; after vs before dipyridamole (FIG. 3d, 3e)
  colon lining (colonoscopy appearance): significantly improved
[9]; baseline before dipyridamole, 23 children, range 4-14, scoring criteria of Table 4
  Severity score, Pre-treatment, median: 9
[9]; baseline before dipyridamole, 23 children, range 235-790, reference range 140-440
  Platelet counts, Pre-treatment, median: 370 10^9/L
[9]; children with colitis, dipyridamole 3-5 mg/kg/day
  adverse reactions: no reports of adverse reactions
[10]; [14]
  body weight: significantly increased
  colon length: significantly increased
[10]; [15]
  epithelial integrity and structure (HE stained colon sections): improved
  platelet aggregation in colonic mucosa (CD41+ clusters): reduced
[10]; dipyridamole vs DSS alone, ELISA
  TNF-α expression in colon mucosa: reduced
[11]
  co-localized activated transcription factors ATF2 and CREB with CD39 in colonic mucosa: increased; also recorded: enhanced

## anti-TNF-α: Anti-TNF-α drug (Infliximab), anti-TNF-α antibody biologic used to treat colitis and IBD
[12]; after vs before treatment, FIG. 6B
  appearance of the colon (colonoscopy): improved
[12]; patients with inflammatory bowel disease, for methylprednisolone some patients only
  clinical status / clinical symptoms: improved
[1]
  macrophage invasion in colonic mucosa: no effect
[8]; children with colitis or IBD, after vs before methylprednisolone (n=5) or anti-TNF-α (n=6), FIG. 6C
  expression of CD39 (CD39 IET) in colonic mucosa: no effect
